Data published in ChEMBL document CHEMBL3621069 (Bioorg Med Chem Lett, 2015).
≈ marks a conversion by molar mass, not a printed value.

Legend:
[1] = target: T1, Tyrosine-protein kinase SYK (Homo sapiens, UniProt P43405); assay: Inhibition of purified full-length human SYK pre-incubated for 30 mins at room temperature before Ulight-TK peptide substrate addition and measured 1 hr after substrate addition by cell free kinase assay
Rattus norvegicus = assay: Volume of distribution at steady state in Sprague-Dawley rat at 10 mg/kg, po; assay type: ADME, organism-based; conditions: in vivo
[2] = Apparent permeability in human Caco2 cells; assay type: ADME, cell-based; conditions: Caco-2
[3] = target: T2, Tyrosine-protein kinase JAK3 (Homo sapiens, UniProt P52333); assay: Inhibition of JAK3 (unknown origin) pre-incubated for 30 mins at room temperature before substrate addition and measured 1 hr after substrate addition by cell free kinase assay
T2 sequence (P52333 whole entry): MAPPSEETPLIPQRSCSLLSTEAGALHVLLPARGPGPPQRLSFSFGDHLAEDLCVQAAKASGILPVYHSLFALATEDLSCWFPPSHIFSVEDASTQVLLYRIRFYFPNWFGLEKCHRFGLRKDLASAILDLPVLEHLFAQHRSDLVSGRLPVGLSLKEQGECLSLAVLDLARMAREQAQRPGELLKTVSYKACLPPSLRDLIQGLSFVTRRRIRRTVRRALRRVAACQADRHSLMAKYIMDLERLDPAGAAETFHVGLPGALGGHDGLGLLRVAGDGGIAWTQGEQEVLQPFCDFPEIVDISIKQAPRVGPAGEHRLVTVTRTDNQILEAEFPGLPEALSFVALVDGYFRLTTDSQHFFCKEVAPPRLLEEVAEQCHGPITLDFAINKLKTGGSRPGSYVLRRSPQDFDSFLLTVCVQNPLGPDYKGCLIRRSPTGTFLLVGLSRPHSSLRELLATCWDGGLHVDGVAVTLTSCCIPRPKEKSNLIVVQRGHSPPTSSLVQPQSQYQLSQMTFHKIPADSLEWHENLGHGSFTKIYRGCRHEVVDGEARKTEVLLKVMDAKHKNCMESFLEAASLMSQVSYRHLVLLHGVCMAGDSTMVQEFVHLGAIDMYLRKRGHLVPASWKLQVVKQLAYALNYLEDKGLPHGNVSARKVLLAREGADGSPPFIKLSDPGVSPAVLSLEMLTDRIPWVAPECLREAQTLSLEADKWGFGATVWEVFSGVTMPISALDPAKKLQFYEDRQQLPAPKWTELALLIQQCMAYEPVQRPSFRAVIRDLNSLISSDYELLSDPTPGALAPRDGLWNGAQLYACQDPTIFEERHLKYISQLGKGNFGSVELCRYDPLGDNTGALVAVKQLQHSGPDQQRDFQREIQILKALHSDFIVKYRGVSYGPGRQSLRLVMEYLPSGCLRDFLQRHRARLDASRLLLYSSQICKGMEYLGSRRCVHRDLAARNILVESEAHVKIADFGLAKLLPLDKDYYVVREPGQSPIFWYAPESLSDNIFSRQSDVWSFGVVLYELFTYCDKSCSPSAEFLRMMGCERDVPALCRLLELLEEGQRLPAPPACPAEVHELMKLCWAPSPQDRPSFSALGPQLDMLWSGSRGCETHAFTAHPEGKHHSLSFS

[4] = Clearance in Sprague-Dawley rat at 10 mg/kg, po; assay type: ADME, organism-based; conditions: in vivo
[5] = AUClast in Sprague-Dawley rat at 10 mg/kg; assay type: ADME, organism-based; set-up: dose 10 mg/kg, time 0 - last; conditions: in vivo
[6] = target: T1, Tyrosine-protein kinase SYK; assay: Inhibition of SYK-mediated TNFalpha production in human IgG-stimulated human THP1 cells incubated for 18 hrs by ELISA method; assay type: cell-based, THP-1
[7] = Kinetic solubility of the compound; assay type: physicochemical; conditions: read-out: Kinetic_solubility
Cytochrome P450 3A4 = Cytochrome P450 3A4 (Homo sapiens, UniProt P08684); assay: Inhibition of CYP3A4 (unknown origin); assay type: ADME
Cytochrome P450 3A4, sequence (P08684 whole entry): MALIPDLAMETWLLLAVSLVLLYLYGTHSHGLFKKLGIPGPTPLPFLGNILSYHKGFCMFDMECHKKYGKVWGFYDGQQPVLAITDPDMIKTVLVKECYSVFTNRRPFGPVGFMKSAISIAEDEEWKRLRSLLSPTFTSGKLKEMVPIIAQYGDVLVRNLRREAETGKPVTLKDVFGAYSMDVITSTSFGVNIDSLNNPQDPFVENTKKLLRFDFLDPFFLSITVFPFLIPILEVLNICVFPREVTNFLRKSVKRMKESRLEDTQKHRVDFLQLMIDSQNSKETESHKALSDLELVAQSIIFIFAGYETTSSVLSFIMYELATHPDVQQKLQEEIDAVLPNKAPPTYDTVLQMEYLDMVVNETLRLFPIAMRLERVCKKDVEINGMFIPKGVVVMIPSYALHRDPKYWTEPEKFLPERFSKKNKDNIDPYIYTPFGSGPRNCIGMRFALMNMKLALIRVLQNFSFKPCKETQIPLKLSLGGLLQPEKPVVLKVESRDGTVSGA

[8] = Terminal half life in Sprague-Dawley rat at 10 mg/kg, po; assay type: ADME, organism-based; conditions: in vivo, read-out: beta t1/2 (converted)
[9] = Oral bioavailability in Sprague-Dawley rat at 10 mg/kg; assay type: ADME, organism-based; conditions: in vivo
[10] = Inhibition of CYP450 (unknown origin); assay type: ADME, Homo sapiens
[11] = target: Proto-oncogene tyrosine-protein kinase receptor Ret (Homo sapiens, UniProt P07949); assay: Inhibition of human RET pre-incubated for 30 mins at room temperature before substrate addition and measured 1 hr after substrate addition by cell free kinase assay
Proto-oncogene tyrosine-protein kinase receptor Ret, sequence (P07949 whole entry): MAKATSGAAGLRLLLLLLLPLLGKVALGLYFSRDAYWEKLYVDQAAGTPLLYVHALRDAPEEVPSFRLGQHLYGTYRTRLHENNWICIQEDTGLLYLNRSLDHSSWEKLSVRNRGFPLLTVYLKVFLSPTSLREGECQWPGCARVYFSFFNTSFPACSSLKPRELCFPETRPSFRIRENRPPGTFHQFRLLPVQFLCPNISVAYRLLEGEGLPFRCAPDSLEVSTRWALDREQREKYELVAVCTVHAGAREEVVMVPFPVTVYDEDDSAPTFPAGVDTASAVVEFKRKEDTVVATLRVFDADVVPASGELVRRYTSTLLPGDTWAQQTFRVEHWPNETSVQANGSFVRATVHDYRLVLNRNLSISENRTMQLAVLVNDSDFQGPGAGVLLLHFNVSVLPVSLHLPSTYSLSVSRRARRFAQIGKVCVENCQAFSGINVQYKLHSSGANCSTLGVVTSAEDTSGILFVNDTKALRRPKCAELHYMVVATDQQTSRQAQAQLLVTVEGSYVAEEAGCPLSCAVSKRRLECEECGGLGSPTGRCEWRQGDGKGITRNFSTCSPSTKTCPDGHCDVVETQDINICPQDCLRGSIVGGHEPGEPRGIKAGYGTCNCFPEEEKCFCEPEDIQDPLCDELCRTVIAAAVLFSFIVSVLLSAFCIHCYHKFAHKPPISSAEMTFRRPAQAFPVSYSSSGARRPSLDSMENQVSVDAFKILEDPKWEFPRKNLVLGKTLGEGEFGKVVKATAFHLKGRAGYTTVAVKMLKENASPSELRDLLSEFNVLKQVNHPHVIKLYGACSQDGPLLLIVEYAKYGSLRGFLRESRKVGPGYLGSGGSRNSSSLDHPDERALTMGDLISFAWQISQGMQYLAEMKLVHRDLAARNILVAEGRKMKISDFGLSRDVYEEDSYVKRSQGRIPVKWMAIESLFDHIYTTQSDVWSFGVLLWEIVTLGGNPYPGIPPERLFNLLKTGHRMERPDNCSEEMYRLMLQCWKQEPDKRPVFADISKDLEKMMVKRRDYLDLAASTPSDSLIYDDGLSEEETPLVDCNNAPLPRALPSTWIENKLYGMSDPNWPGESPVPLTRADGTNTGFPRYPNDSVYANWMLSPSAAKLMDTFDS

[12] = Apparent permeability from apical to basolateral side in human Caco2 cells; assay type: ADME, cell-based; conditions: Caco-2
Plasma = assay: Unbound fraction in human plasma; assay type: ADME, cell-free
[13] = Stability in human liver microsomes; assay type: ADME; conditions: read-out: Stability
[14] = target: T3, Tyrosine-protein kinase ZAP-70 (Homo sapiens, UniProt P43403); assay: Inhibition of purified full-length human ZAP70 pre-incubated for 30 mins at room temperature before UlighTM-PolyGT peptide substrate addition and measured 1 hr after substrate addition by cell free kinase assay
T3 sequence (P43403 whole entry): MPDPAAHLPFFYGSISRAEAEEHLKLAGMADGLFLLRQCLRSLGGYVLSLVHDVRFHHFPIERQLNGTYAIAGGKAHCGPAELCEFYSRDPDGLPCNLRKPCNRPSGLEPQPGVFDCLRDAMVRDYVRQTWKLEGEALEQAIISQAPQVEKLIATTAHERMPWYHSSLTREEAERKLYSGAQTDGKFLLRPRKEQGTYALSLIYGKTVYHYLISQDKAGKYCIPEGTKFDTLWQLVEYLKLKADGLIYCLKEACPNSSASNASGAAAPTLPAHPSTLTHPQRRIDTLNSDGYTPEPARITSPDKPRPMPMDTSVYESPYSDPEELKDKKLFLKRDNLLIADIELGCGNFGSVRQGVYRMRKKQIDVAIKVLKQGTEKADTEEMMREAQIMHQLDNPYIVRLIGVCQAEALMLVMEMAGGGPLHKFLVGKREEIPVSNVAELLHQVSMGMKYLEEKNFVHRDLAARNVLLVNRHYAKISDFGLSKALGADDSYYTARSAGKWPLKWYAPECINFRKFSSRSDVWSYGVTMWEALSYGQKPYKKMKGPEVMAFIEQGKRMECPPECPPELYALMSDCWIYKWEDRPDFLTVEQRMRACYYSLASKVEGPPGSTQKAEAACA

[15] = Apparent permeability from basolateral to apical side in human Caco2 cells; assay type: ADME, cell-based; conditions: Caco-2

| Compound | IC50 [1] [nM] | also measured |
| --- | --- | --- |
| Cc1cc(C)cc(Nc2nccc(-n3cc(C)c(CN4CC(O)C4)c3)n2)c1 | 5.4 | – |
| Cc1cc(C)cc(Nc2nccc(-n3cc(C)c(CN4CC[C@@H](N)C4)c3)n2)c1 | 13.2 | – |
| Cc1cc(C)cc(Nc2nccc(-n3cc(C)c(CN4CCC(F)(F)CC4)c3)n2)c1 | 307 | – |
| Cc1cn(-c2ccnc(Nc3cc(C)c(OCCO)c(C)c3)n2)cc1CN1CC(O)C1 | 5 | – |
| Cc1cc(C)cc(Nc2nccc(-n3cc(C)c(CN4CC[C@H](C(=O)O)C4)c3)n2)c1 | 17.8 | – |
| Cc1cc(Nc2nccc(-n3cc(CN4CC(O)C4)c(C)n3)n2)cc(C)c1OCCN1CCCC1 | 8.9 | – |
| Cc1cn(-c2ccnc(Nc3cc(C)c(OCC(=O)N4CCCC4)c(C)c3)n2)cc1CN1CC[C@@H](O)C1 | 14.4 | – |
| Cc1cn(-c2ccnc(Nc3cc(C)c(Oc4ccccc4)c(C)c3)n2)cc1CN1CC(O)C1 | 144 | – |
| Cc1cn(-c2ccnc(Nc3cc(C)c(OS(C)(=O)=O)c(C)c3)n2)cc1CN1CC(O)C1 | 6.3 | – |
| Cc1nn(-c2nc(Nc3ccc4c(cnn4C)c3)ncc2F)cc1CN1CC(O)C1 | 326 | – |
| Cc1nn(-c2ccnc(Nc3ccccc3)n2)cc1CN1CC[C@@H](O)C1 | 871 | – |
| Cc1cc(C)cc(Nc2nccc(-n3cc(CN4CCC(O)CC4)c(C)n3)n2)c1 | 39.1 | – |
| Cc1cn(-c2ccnc(Nc3cc(C)c(OCCN4CCCC4)c(C)c3)n2)cc1CN1CC(O)C1 | 11.5 | – |
| Cc1cc(C)cc(Nc2nccc(-n3cc(CN4CC[C@@H](O)C4)c(C)n3)n2)c1 | 3.5 | – |
| Cc1cn(-c2ccnc(Nc3cc(C)c(OCC(=O)N4CCCC4)c(C)c3)n2)cc1CN1CC(O)C1 | 7.3 | – |
| COc1cc(Nc2nccc(-n3cc(C)c(CN(C)C)c3)n2)cc(OC)c1OC | 71.8 | – |
| Cc1cc(C)cc(Nc2nccc(-n3cc(C)c(CN4CC[C@@H](O)C4)c3)n2)c1 | 2.3 | Vdss (Rattus norvegicus): 4.3 L/kg; Papp [2]: 2 ×10⁻⁶ cm/s; IC50 [3]: 349 nM; CL/F [4]: 43 mL/min/kg; AUC(0-t) [5]: 6240 ng·h/mL; IC50 [6]: 77 nM; solubility kinetic [7]: 70 µM (≈ 26.4 µg/mL); IC50 (Cytochrome P450 3A4): 5100 nM; half-life [8]: 2.6 h; bioavailability [9]: 7.6% |
| Cc1nn(-c2ccnc(Nc3ccc4c(c3)c(Cl)c(C)n4C)n2)cc1CN1CC[C@@H](O)C1 | – | IC50 [10]: > 10000 nM; IC50 [11]: 9590 nM; IC50 [3]: 478 nM; Papp A→B [12]: 6.2 ×10⁻⁶ cm/s; Fu (Plasma): < 0.4%; half-life [13]: > 1 h; IC50 [14]: 73400 nM; Papp B→A [15]: 7.3 ×10⁻⁶ cm/s |
| COc1c(C)cc(Nc2nccc(-n3cc(C)c(CN4CC(O)C4)c3)n2)cc1C | 5.7 | Vdss (Rattus norvegicus): 5.6 L/kg; CL/F [4]: 70 mL/min/kg; AUC(0-t) [5]: 550 ng·h/mL; half-life [8]: 1.2 h; bioavailability [9]: 7.8% |
| COc1cc(Nc2nccc(-n3cc(C)c(CN4CC[C@@H](O)C4)c3)n2)cc(OC)c1OCC(=O)N1CCCC1 | 101 | – |
| Cc1cc(C)cc(Nc2nccc(-n3cc(CN4CC(O)C4)c(C4CC4)c3)n2)c1 | 1.9 | – |
| Cc1nn(-c2ccnc(Nc3ccc4c(cnn4C4CC4)c3)n2)cc1CN1CC(O)C1 | 8 | – |
| Cc1cn(-c2ccnc(Nc3cc(C)c(OCCO)c(C)c3)n2)cc1CN1CC[C@@H](O)C1 | 17.3 | Papp [2]: 10.3 ×10⁻⁶ cm/s; solubility kinetic [7]: 120 µM (≈ 52.5 µg/mL); IC50 (Cytochrome P450 3A4): > 10000 nM |

Further lines, with some results ahead:

| IC50 [1] [nM] | Compound | also measured |
| --- | --- | --- |
| 7.9 | Cc1cn(-c2ccnc(Nc3cc(C)c(OS(C)(=O)=O)c(C)c3)n2)cc1CN1CC[C@@H](O)C1 | – |
| 5990 | Cc1nn(-c2nc(Nc3ccc4c(c3)c(C#N)nn4C)ncc2F)cc1CN1CC(O)C1 | – |
| 6.2 | Cc1cc(C)cc(Nc2nccc(-n3cc(C)c(CN(C)C)c3)n2)c1 | – |
| 61.4 | COc1cc(Nc2nccc(-n3cc(C)c(CN4CC(O)C4)c3)n2)cc(OC)c1OCC(=O)N1CCCC1 | – |
| 9.2 | CCn1ccc2cc(Nc3nccc(-n4cc(CN5CC(O)C5)c(C5CC5)n4)n3)ccc21 | – |
| 7.3 | Cc1cc(C)cc(Nc2nccc(-n3cc(CN4CC(O)C4)c(C)n3)n2)c1 | – |
| 377 | Cc1cn(-c2ccnc(Nc3cc(C)c(Oc4ccccc4)c(C)c3)n2)cc1CN1CC[C@@H](O)C1 | – |
| 22.8 | CCn1ccc2cc(Nc3nccc(-n4cc(CN5CC(O)C5)c(C)n4)n3)ccc21 | – |
| 38 | COc1cc(Nc2nccc(-n3cc(C)c(CN4CC(O)C4)c3)n2)cc(OC)c1OC | – |
| 20.4 | Cc1nn(-c2ccnc(Nc3ccc4c(c3)CCN4C)n2)cc1CN1CC(O)C1 | – |
| 36.6 | Cc1nn(-c2ccnc(Nc3ccc4c(ccn4C)c3)n2)cc1CN1CC(O)C1 | – |
| 3.7 | Cc1cc(C)cc(Nc2nccc(-n3cc(CN4CC[C@@H](O)C4)c(C4CC4)c3)n2)c1 | – |
